Drawing on patent publication US20240335462A1, “SULFUR/PHOSPHORUS-CONTAINING ARYL COMPOUND AND APPLICATION THEREOF” (MEDSHINE DISCOVERY INC., priority 2021, published 2024), this text covers kinase selectivity, GI50 and IC50 for 4 compounds.

Where a name gives a salt, the structure may show the parent alone.

The test system of assay [1] is JH2 pseudokinase domain of TYK2. The following applies: background statement; cited from earlier work.
Assay [2] addresses Ba/F3-FL-TYK2-E957D cells (Homo sapiens, UniProt P29597, E957D, cells depend on it). The experiment in a line: Proliferation of Ba/F3-FL-TYK2-E957D cells (CellTiter-Glo). Format: cell-based, mouse. The following applies: 72 hours, read-out: Half maximal inhibitory concentration IC50 for cells Ba/F3-FL-TYK2-E957D. An excerpt:
(§1) Adenosine triphosphate (ATP) serves as a universal energy carrier in various life processes, representing the smallest unit of energy storage and transfer. The CellTiter-Glo™ Luminescent Cell Viability Assay Kit utilizes luciferase as a detection agent. During the luminescent process, luciferase requires the participation of ATP. By adding CellTiter-Glo™ reagent to the cell culture medium and measuring the luminescence, the light signal was directly proportional to the amount of ATP in the system, and ATP was positively correlated with the number of viable cells. Therefore, cell proliferation can be detected by measuring ATP content using the CellTiter-Glo kit. In this test, the cell lines used were Ba/F3-FL-TYK2-E957D and Ba/F3-TEL-TYK2. Ba/F3-FL-TYK2-E957D cells can stably express the exogenously introduced human TYK2-E957D gene, and the TYK2-E957D gene sequence contains both JH1 and JH2 domains. On the other hand, Ba/F3-TEL-TYK2 cells can stably express the exogenously introduced human TEL-TYK2 gene, and the TEL-TYK2 gene sequence contains only the JH1 domain of TYK2.
(§2) The cell lines were cultured in an incubator at 37° C. with 5% CO2. Regular passaging was performed, and cells in the logarithmic growth phase were selected for plating.
(§3) • a) The test compounds were prepared into a 10 mM solution with DMSO, and then diluted to 0.3 or 1 mM with DMSO. • b) Preparation of 1000× compound storage plate (tube): The compounds were 3-fold serially diluted from the highest concentration to the lowest concentration, creating 9 different concentrations. • c) Preparation of 20× compound working solution: 49 μL of cell culture medium was added to a flat-bottomed 96-well transparent drug plate. From the 1000× compound storage plate, 1 μL of the compound was pipetted into the cell culture medium in the 96-well transparent drug plate. In the solvent control, 1 μL of DMSO was added. After the compound or DMSO was added, the mixture was homogenized using a multi-channel pipette.
(§4) • a) Cells were stained with trypan blue and viable cells were counted to ensure a cell viability of 90% or more. • b) 95 μL of cell suspension (2000 cells/well) was added to each well of the compound assay cell plate, and cell-free culture medium containing 0.1% DMSO was added to the Min control wells. • c) Administration in the compound assay cell plate: 5 μL of 20× compound working solution was added to the cell culture plate. 5 μL of DMSO-cell culture medium mixture was added to the Max control wells. The final concentration of DMSO was 0.1%. • d) The culture plate was then incubated in an incubator at 37° C. with 5% CO2 for 72 hours.
(§5) The following steps were conducted in accordance with the instructions of the Promega CellTiter-Glo Luminescent Cell Viability Assay Kit (Promega-G7573). • a) CellTiter-Glo buffer was thawed and brought to room temperature. • b) CellTiter-Glo substrate was also brought to room temperature. • c) CellTiter-Glo buffer was added to a bottle of CellTiter-Glo substrate to dissolve the substrate, thereby preparing CellTiter-Glo working solution. • d) The mixture was slowly vortexed and shaken to be fully dissolved. • e) The cell culture plate was removed and allowed to equilibrate to room temperature for 10 minutes. • f) 50 μL (equal to half the volume of cell culture medium in each well) of CellTiter-Glo working solution was added to each well. • g) The culture plate was shaken on an orbital shaker for 2 minutes to induce cell lysis. • h) The plate was then left at room temperature for 10 minutes to stabilize the luminescent signal. • i) The luminescent signal was detected using a SpectraMax Paradigm plate reader.
(§6) Data analysis was conducted using GraphPad Prism 5.0 software. Nonlinear S-curve regression was employed to fit the data and generate dose-response curves. From these curves, the IC50 values were calculated.

In another assay the target is TYK2 JH2 pseudokinase (Homo sapiens, UniProt P29597). In words: Inhibitory activity on TYK2 JH2 pseudokinase (TR-FRET). It is filed as binding. The following applies: 60 min room temperature, read-out: Kinase half maximal inhibitory concentration IC50 TYK2 JH2. As for the experimental part: In this experiment, the inhibitory effect of compounds on TYK2 JH2 pseudokinase was tested using the method of time-resolved fluorescence resonance energy transfer (TR-FRET). In the experiment, TYK2 JH2 or JAK1 JH2 pseudokinase can simultaneously bind to fluorescently labeled Tracer and Tb antibody to form a “sandwich structure”. Tb antibody, functioning as a fluorescent donor, produces fluorescence at a wavelength of 495 nm under the excitation of light at a specific wavelength. Tracer, functioning as a fluorescent acceptor, can receive fluorescence at a wavelength of 495 nm and thus produce fluorescence at a wavelength of 520 nm, i.e., a time-resolved fluorescence resonance energy transfer (TR-FRET) signal, only when it is within the “sandwich structure”, i.e., when it is sufficiently close to Tb antibody. When the compound is added to compete with Tracer for binding to the pseudokinase, the binding of Tracer decreases, leading to a weakened TR-FRET signal. The inhibitory activity of the compound binding to the pseudokinase can be reflected by the ratio of signal values at 520 nm/495 nm.
TYK2 JH2 pseudokinase, sequence (P29597 589-875 limits assumed): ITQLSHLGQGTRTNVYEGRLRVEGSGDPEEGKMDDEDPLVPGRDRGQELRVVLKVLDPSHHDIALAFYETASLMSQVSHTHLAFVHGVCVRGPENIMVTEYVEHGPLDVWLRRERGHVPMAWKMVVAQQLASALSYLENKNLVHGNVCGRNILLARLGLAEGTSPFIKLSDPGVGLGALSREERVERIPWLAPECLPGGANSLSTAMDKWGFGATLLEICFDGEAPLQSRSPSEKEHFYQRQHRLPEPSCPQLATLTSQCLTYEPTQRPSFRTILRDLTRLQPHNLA
The working solution consists of the following components: HEPES (pH 7.5) at a final concentration of 20 mM; MgCl2 at a final concentration of 10 mM; Brij-35 at a final concentration of 0.015%; DTT at a final concentration of 2 mM; and BSA at a final concentration of 50 μg/mL.
• a) The compound was dissolved in DMSO to achieve a storage concentration of 10 mM. • b) Various concentrations of the compound, 200 times the final concentration, were prepared in a compound dilution plate and transferred to an Echo plate. • c) The Echo instrument was used to transfer 150 nL of the compound from the Echo plate to a 384-well experimental plate. • d) 5 μL of TYK2 JH2 kinase, at three times the final concentration, was added to the 384-well experimental plate. • e) 5 μL of Tb, at three times the final concentration, was added to the 384-well experimental plate. • f) 5 μL of Tracer, at three times the final concentration, was added to the 384-well experimental plate. • g) The plate was centrifuged for 30 seconds and then incubated at room temperature for 60 minutes. • h) The fluorescence signal values at 520 nm/495 nm were measured using an Envision plate reader (PerkinElmer).
Data analysis was performed using the XL-Fit software to determine the IC50 of the compounds.
(Time-resolved FRET reads energy transfer from a long-lived donor to a nearby acceptor.)

The next assay relates to Ba/F3-TEL-TYK2 cells. The experiment in a line: Proliferation of Ba/F3-TEL-TYK2 cells (CellTiter-Glo). Format: cell-based. The following applies: 72 hours, read-out: Half maximal inhibitory concentration IC50 for cells Ba/F3-TEL-TYK2.
Excerpt: as §1, §2, §3, §4, §5, §6
Background: In ATP-based viability assays light output follows the ATP content of the culture.

The test system of assay [3] is TYK2 signaling pathway (IFN-α/pSTAT1). In words: IFN-α-induced STAT1 phosphorylation in mouse whole blood. It is filed as cell-based. The following applies: CD3+ cells. As for the experimental part: The purpose of this experiment was to detect the inhibitory effect of the compound on the JAK-STAT signaling pathway activated by IFN-α in mouse whole blood. Fresh mouse whole blood was collected and placed in a 96-well plate. The test compound was added and incubated for 1 hour, followed by stimulation with IFN-α. The corresponding STAT1 phosphorylation level in the CD3^+ cell population was analyzed using flow cytometer by means of surface antibody staining and intracellular phosphorylated antibody staining. The IFN-α-induced STAT1 phosphorylation in mouse whole blood is dependent on TYK2 activity. By detecting the inhibitory activity of the compound on downstream […] phosphorylation, the half maximal inhibitory concentration (IC50) of the compound on TYK2 signaling pathway activity can be determined.
• a) The compound was prepared into a 10 mM solution with dimethyl sulfoxide (DMSO), and diluted in DMSO to a solution with various concentrations, 500 times the final concentration. • b) 5 μL of the diluted compound was transferred to 120 μL of phosphate buffered saline (PBS) containing 0.1% bovine serum albumin (BSA). • c) Positive and negative control groups were set up, with both finally containing 0.2% DMSO.
• a) 67.5 μL of mouse whole blood was added to each well of a 96-well cell culture plate. • b) 3.5 μL of the diluted compound was added thereto and mixed thoroughly. • c) The plate was incubated in a 37° C. incubator for 60 minutes. • d) Mouse interferon recombinant protein was diluted 125-fold in PBS containing 0.1% BSA, and anti-mouse CD3 antibody was diluted 5-fold in PBS containing 0.1% BSA. 5 μL of diluted anti-mouse CD3 antibody and 4 μL of diluted mouse interferon recombinant protein were added to each well. • e) The plate was incubated in a 37° C. incubator for 30 minutes. • f) All cells were transferred to a 96-well deep well plate, and 1 mL of 37° C. pre-warmed 1× lysis/fixation buffer was added thereto. • g) The cells were incubated in the dark at 37° C. for 10 minutes. • h) After centrifugation at 600 g for 5 minutes, the supernatant was discarded, and the cells were washed twice with 1 mL of PBS by centrifugation. • i) 0.4 mL per well of permeabilization buffer was added to the cell pellet and mixed thoroughly. The cells were incubated in the dark at 4° C. for 30 minutes. • j) After centrifugation at 600 g for 5 minutes, the supernatant was discarded, and the cells were washed twice with 1 mL of flow cytometry staining buffer (PBS+0.2% BSA+1 mM EDTA) by centrifugation. • k) Anti-STAT1 antibody was diluted 65-fold in flow cytometry staining buffer, and added to cell-containing wells at 100 μL per well and mixed thoroughly. • l) The cells were incubated at room temperature for 40 minutes. • m) 1 mL per well of flow cytometry staining buffer was added, and the cells were washed twice by centrifugation at 600 g for 5 minutes. • n) The supernatant was discarded, and the cell pellet was resuspended in 300 μL of flow cytometry staining buffer. • o) The samples were loaded for analysis using the Beckman CytoFlex flow cytometer.
Data were analyzed using FlowJo software. Curve fitting was performed and the IC50 was calculated using GraphPad Prism 8 software.

Ba/F3-FL-TYK2-E957D cells, sequence (P29597 whole entry E957D): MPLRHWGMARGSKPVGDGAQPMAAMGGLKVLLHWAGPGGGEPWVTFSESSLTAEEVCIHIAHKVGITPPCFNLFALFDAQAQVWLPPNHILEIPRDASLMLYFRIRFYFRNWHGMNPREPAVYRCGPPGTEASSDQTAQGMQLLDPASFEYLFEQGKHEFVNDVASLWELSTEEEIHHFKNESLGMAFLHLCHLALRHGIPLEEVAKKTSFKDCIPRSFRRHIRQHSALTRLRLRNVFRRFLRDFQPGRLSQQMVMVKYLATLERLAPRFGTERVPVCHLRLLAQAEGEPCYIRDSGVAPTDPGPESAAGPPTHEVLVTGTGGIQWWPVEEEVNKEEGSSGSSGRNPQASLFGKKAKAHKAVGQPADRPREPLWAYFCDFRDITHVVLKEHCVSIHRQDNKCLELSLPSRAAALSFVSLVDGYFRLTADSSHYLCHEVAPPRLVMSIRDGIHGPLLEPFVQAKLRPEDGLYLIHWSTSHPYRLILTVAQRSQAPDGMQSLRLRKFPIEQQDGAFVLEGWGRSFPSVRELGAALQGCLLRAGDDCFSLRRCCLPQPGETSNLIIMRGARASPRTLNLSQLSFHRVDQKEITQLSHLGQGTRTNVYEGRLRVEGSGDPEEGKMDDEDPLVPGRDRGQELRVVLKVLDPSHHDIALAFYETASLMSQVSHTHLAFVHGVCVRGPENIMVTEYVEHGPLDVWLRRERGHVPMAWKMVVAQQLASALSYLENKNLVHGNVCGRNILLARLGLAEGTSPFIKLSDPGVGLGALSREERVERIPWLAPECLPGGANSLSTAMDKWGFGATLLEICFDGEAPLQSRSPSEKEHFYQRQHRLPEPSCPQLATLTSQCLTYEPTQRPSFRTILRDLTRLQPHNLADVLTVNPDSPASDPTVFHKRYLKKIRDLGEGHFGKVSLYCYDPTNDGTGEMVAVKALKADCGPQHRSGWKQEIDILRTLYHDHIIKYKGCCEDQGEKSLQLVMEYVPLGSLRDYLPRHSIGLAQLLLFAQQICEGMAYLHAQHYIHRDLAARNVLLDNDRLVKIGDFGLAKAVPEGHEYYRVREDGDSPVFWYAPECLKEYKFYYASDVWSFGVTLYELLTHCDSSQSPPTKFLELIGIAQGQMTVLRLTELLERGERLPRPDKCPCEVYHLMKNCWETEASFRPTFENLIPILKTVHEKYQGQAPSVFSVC

For `[2H]C([2H])([2H])NC(=O)c1nnc(NC(=O)C2CC2)cc1Nc1cccc(-c2ncn(C)n2)c1OC` [BMS-986165], the kinase selectivity in assay [1] is on record as greater than 1000 fold.
Consider `[2H]C([2H])([2H])NC(=O)c1cnc(NC(=O)C2CC2)cc1Nc1cccc(-c2ncc(S(C)(=O)=O)cn2)c1OC` [Hydrochloride of WX-001], for which the GI50 in assay [2] stood at 13.7 nM. The IC50 at TYK2 JH2 pseudokinase amounted to 0.27 nM.
Take `COc1c(Nc2cc(NC(=O)C3CC3)ncc2C(N)=O)cccc1-c1ncc(S(=O)(=O)C(C)C)cn1` [WX-033]: the GI50 in assay [2] came to 0.1 nM. For the same compound, the IC50 in the assay with Ba/F3-TEL-TYK2 cells is greater than 10000 nM; in assay [3], 316 nM.
For `COc1c(Nc2cc(NC(=O)C3CC3)ncc2C(N)=O)cccc1-c1ccc(S(=O)(=O)C(C)C)cn1` [Trifluoroacetate of WX-034], in that order: 0.1 nM, greater than 10000 nM and 93.2 nM.
